In patent US20080267942A1, “BENZAZEPIN-2(1H)-ONE DERIVATIVES” (Pfizer Limited, priority 2006, published 2008):

How the values were obtained:
[1] = molecular target: T1, bovine beta-2 adrenoceptor (Bos taurus, UniProt Q28044); assay: cAMP assay in CHO cells transfected with the bovine beta-2 adrenoceptor (DiscoveRx Hit Hunter cAMP II); format: cell-based; conditions: CHO cells transfected with bovine beta-2 adrenoceptor, 30 minutes incubation with compound
T1 construct: expressed in transfected cells; host or cells: CHO cells
T1 sequence (Q28044 whole entry): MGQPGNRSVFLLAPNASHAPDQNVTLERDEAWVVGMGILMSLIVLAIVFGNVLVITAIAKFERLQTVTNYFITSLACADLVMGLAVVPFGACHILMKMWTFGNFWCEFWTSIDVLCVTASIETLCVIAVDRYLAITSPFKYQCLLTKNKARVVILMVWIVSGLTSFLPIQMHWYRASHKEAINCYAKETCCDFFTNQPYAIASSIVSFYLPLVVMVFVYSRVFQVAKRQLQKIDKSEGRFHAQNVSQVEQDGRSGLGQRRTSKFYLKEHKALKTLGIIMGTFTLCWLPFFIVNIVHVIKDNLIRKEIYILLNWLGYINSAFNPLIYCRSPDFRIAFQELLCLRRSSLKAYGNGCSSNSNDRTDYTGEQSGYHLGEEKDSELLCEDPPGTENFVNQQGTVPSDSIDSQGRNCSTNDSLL
Protocol: (§1) CHO cells transfected with the bovine or porcine beta-2 adrenceptors were maintained in culture in DMEM/HAMS F12+10% FBS+2 mM glutamine+500 μg/ml geneticin (for the porcine receptor the medium was supplement with 1.5 mM HEPES) at 37° C. with a 5% CO2 atmosphere.
(§2) Cells were plated into 96 well viewplates in medium and incubated overnight at 37° C. with a 5% CO2 atmosphere. The cells were pre-incubated with 0.5 mM IBMX in PBS for 30 minutes prior to incubation with increasing concentrations of experimental compound (5×10^−12 to 10^−5M) for 30 minutes at 37° C. with a 5% CO2 atmosphere. At the end of the incubation time the compound was removed and the cells assayed for cAMP using the DiscoveRx Hit Hunter cAMP II™ assay kit.
(§3) Duplicate samples were run for each experimental compound and the data generated was analysed using EC50 analysis software in Graphpad Prism.

[2] = molecular target: T2, porcine beta-2 adrenoceptor (Sus scrofa, UniProt Q28997); assay: cAMP assay in CHO cells transfected with the porcine beta-2 adrenoceptor (DiscoveRx Hit Hunter cAMP II); format: cell-based; conditions: CHO cells transfected with porcine beta-2 adrenoceptor, 30 minutes incubation with compound
T2 construct: expressed in transfected cells; host or cells: CHO cells
T2 sequence (Q28997 whole entry): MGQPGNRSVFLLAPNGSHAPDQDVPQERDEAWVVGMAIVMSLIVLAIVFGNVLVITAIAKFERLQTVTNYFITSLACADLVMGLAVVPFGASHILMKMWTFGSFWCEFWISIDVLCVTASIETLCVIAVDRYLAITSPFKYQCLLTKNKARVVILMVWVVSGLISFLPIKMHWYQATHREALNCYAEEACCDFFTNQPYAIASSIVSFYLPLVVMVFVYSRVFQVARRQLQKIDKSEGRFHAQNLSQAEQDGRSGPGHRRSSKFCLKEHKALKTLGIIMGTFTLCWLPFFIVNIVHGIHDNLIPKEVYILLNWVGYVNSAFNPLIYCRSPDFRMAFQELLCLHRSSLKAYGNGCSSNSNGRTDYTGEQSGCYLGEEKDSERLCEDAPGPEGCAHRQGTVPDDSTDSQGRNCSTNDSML
Protocol: as §1, §2, §3

SMILES | EC50 [1] [nM] | EC50 [2] [nM]
COc1ccc2[nH]cc(CCC(C)N[C@@H]3CCn4c(=O)[nH]c5cccc(c54)[C@H]3O)c2c1 (mixture of isomers) [Example 22, 7-hydroxy-6-{[3-(5-methoxy-1H-indol-3-yl)-1-methylpropyl]amino}-4,5,6,7-tetrahydroimidazo[4,5,1-jk][1]benzazepin-2(1H)-one] | 50 | 53
CC(CCc1nccs1)N[C@@H]1CCn2c(=O)[nH]c3cccc(c32)[C@H]1O (mixture of isomers) [Example 24b, 7-Hydroxy-6-{[1-methyl-3-(1,3-thiazol-2-yl)propyl]amino}-4,5,6,7-tetrahydroimidazo[4,5,1-jk][1]benzazepin-2(1H)-one] | 92 | 79
CC(CCc1cnc(Cl)s1)N[C@@H]1CCn2c(=O)[nH]c3cccc(c32)[C@H]1O (mixture of isomers) [Example 25, 6-{[3-(2-Chloro-1,3-thiazol-5-yl)-1-methylpropyl]amino}-7-hydroxy-4,5,6,7-tetrahydroimidazo[4,5,1-jk][1]benzazepin-2(1H)-one] | 2.9 | 4.2
CC(CCc1cscn1)N[C@@H]1CCn2c(=O)[nH]c3cccc(c32)[C@H]1O (mixture of isomers) [Example 26, 7-Hydroxy-6-{[1-methyl-3-(1,3-thiazol-4-yl)propyl]amino}-4,5,6,7-tetrahydroimidazo[4,5,1-jk][1]benzazepin-2(1H)-one] | 345 | 742
CC(CCc1ccncc1)N[C@@H]1CCn2c(=O)[nH]c3cccc(c32)[C@H]1O (mixture of isomers) [Example 27, 7-Hydroxy-6-[(1-methyl-3-pyridin-4-ylpropyl)amino]-4,5,6,7-tetrahydroimidazo[4,5,1-jk][1]benzazepin-2(1H)-one] | 77 | 53
Cc1ncc(CCC(C)N[C@@H]2CCn3c(=O)[nH]c4cccc(c43)[C@H]2O)s1 (mixture of isomers) [Example 28a, 7-Hydroxy-6-{[1-methyl-3-(2-methyl-1,3-thiazol-5-yl)propyl]amino}-4,5,6,7-tetrahydroimidazo[4,5,1-jk][1]benzazepin-2(1H)-one] | 129 | 104
CC(CCc1c[nH]c2ccc(C#N)cc12)N[C@@H]1CCn2c(=O)[nH]c3cccc(c32)[C@H]1O (mixture of isomers) [Example 29, 3-(3-{[7-Hydroxy-2-oxo-1,2,4,5,6,7-hexahydroimidazo[4,5,1-jk][1]benzazepin-6-yl]amino}butyl)-1H-indole-5-carbonitrile] | 83 | 127
CC(CCn1ccnc1)N[C@@H]1CCn2c(=O)[nH]c3cccc(c32)[C@H]1O (mixture of isomers) [Example 30, 7-Hydroxy-6-{[3-(1H-imidazol-1-yl)-1-methylpropyl]amino}-4,5,6,7-tetrahydroimidazo[4,5,1-jk][1]benzazepin-2(1H)-one] | 48 | 3.8
CC(CCc1c[nH]c2ccncc12)N[C@@H]1CCn2c(=O)[nH]c3cccc(c32)[C@H]1O (mixture of isomers) [Example 31c, 7-Hydroxy-6-{[1-methyl-3-(1H-pyrrolo[3,2-c]pyridin-3-yl)-propyl]amino}-4,5,6,7-tetrahydroimidazo[4,5,1-jk][1]benzazepin-2(1H)-one] | 366 | 19
CC(CCc1c[nH]c2cnccc12)N[C@@H]1CCn2c(=O)[nH]c3cccc(c32)[C@H]1O (mixture of isomers) [Example 32c, 7-Hydroxy-6-{[1-methyl-3-(1H-pyrrolo[2,3-c]pyridin-3-yl)propyl]amino}-4,5,6,7-tetrahydroimidazo[4,5,1-jk][1]benzazepin-2(1H)-one] | 18 | 8.7
Cc1ccc2[nH]cc(CCC(C)N[C@@H]3CCn4c(=O)[nH]c5cccc(c54)[C@H]3O)c2c1 (mixture of isomers) [Example 33, 7-Hydroxy-6-{[1-methyl-3-(5-methyl-1H-indol-3-yl)propyl]amino}-4,5,6,7-tetrahydroimidazo[4,5,1-jk][1]benzazepin-2(1H)-one] | 74 | 24
Cc1ncsc1CCC(C)N[C@@H]1CCn2c(=O)[nH]c3cccc(c32)[C@H]1O (mixture of isomers) [Example 34a, 7-Hydroxy-6-{[1-methyl-3-(4-methyl-1,3-thiazol-5-yl)propyl]amino}-4,5,6,7-tetrahydroimidazo[4,5,1-jk][1]benzazepin-2(1H)-one] | 23 | 45
CC(CCc1cc(Cl)cc2cc[nH]c12)N[C@@H]1CCn2c(=O)[nH]c3cccc(c32)[C@H]1O (mixture of isomers) [Example 35, 6-{[3-(5-Chloro-1H-indol-7-yl)-1-methylpropyl]amino}-7-hydroxy-4,5,6,7-tetrahydroimidazo[4,5,1-jk][1]benzazepin-2(1H)-one] | 0.8 | 2
CC(CCc1cccc2cc[nH]c12)N[C@@H]1CCn2c(=O)[nH]c3cccc(c32)[C@H]1O (mixture of isomers) [Example 38d, 7-Hydroxy-6-{[3-(1H-indol-7-yl)-1-methylpropyl]amino}-4,5,6,7-tetrahydroimidazo[4,5,1-jk][1]benzazepin-2(1H)-one] | 0.6 | 1.1
CC(CCc1ncccc1O)N[C@@H]1CCn2c(=O)[nH]c3cccc(c32)[C@H]1O (mixture of isomers) [Example 39, 7-Hydroxy-6-{[3-(3-hydroxypyridin-2-yl)-1-methylpropyl]amino}-4,5,6,7-tetrahydroimidazo[4,5,1-jk][1]benzazepin-2(1H)-one] | 330 | 159
O=c1[nH]c2cccc3c2n1CC[C@@H](NCCc1c[nH]c2ccccc12)[C@@H]3O (racemic) [Example 40a] | 459 | 20
O=c1[nH]c2cccc3c2n1CC[C@@H](NCCc1c[nH]c2ccccc12)[C@@H]3O (racemic) [Example 40b] | 550 | 28
CCOC(=O)c1[nH]c2cc(Cl)ccc2c1CCN[C@@H]1CCn2c(=O)[nH]c3cccc(c32)[C@H]1O (racemic) [Example 41, Ethyl-6-chloro-3-(2-{[7-hydroxy-2-oxo-1,2,4,5,6,7-hexahydroimidazo[4,5,1-jk][1]benzazepin-6-yl]amino}ethyl)-1H-indole-2-carboxylate] | 546 | 26
CC(/C=C/c1ccc2[nH]cnc2c1)N[C@@H]1CCn2c(=O)[nH]c3cccc(c32)[C@H]1O (mixture of isomers) [Example 42, 6-{[3-(1H-Benzimidazol-5-yl)-1-methylprop-2-en-1-yl]amino}-7-hydroxy-4,5,6,7-tetrahydroimidazo[4,5,1-jk][1]benzazepin-2(1H)-one] | 23 | 22
CC(CCc1ccc2occc2c1)N[C@@H]1CCn2c(=O)[nH]c3cccc(c32)[C@H]1O (mixture of isomers) [Example 43, 6-{[3-(1-Benzofuran-5-yl)-1-methylpropyl]amino}-7-hydroxy-4,5,6,7-tetrahydroimidazo[4,5,1-jk][1]benzazepin-2(1H)-one] | 16 | 11
CC(CCc1c[nH]c2ccccc12)NC1CCn2c(=O)[nH]c3cccc(c32)C1O (single isomer, unassigned) [Example 4a, 7-Hydroxy-6-{[3-(1H-indol-3-yl)-1-methylpropyl]amino}-4,5,6,7-tetrahydroimidazo[4,5,1-jk][1]benzazepin-2(1H)-one] | 3.2 | 6.9
